Reference: patent publication US9926326B2, “Substituted thioxanthenone autophagy inhibitors” (THE CLEVELAND CLINIC FOUNDATION, priority 2014, dated 2018)

Tests used:
PC-3 = experiment: 72 h MTT assay, PC-3; format: cell-based; settings: Homo sapiens, PC-3, Prostate
Description: (§1) Quantification of drug-induced cytotoxicity. Cell viability was assessed by MIT assay. Cells were seeded into 96-well microculture plates at […] per well and allowed to attach for 24 h. Cells were then treated with ROC-325 or HCQ for 72 h. Following drug treatment, MTT was added and cell viability was quantified using a BioTek (Winooski, Vt.) microplate reader. Pro-apoptotic effects following in vitro drug exposure were quantified by propidium iodide (PI) staining and fluorescence-activated cell sorting (FACS) analysis of sub-G0/G1 DNA content as previously described and by measurement of active caspase-3 by flow cytometry using a commercial kit (BD Biosciences, San Jose, Calif.). Mahalingam et al., Clin Cancer Res 2010; 16:141-53.

IGROV-1 = experiment: 72 h MTT assay, IGROV-1; format: cell-based; settings: Homo sapiens, IGROV-1, Ovarian
Description: as §1

DLD-1 = experiment: 72 h MTT assay, DLD-1; format: cell-based; settings: Homo sapiens, DLD-1, Colon
Description: as §1

NCI-H69 = experiment: 72 h MTT assay, NCI-H69; format: cell-based; settings: Homo sapiens, NCI-H69, Lung
Description: as §1

MiaPaCa-2 = experiment: 72 h MTT assay, MiaPaCa-2; format: cell-based; settings: Homo sapiens, MIA PaCa-2, MiaPaCa-2, Pancreas
Description: as §1

A498 = experiment: 72 h MTT assay, A498; format: cell-based; settings: Homo sapiens, A498, Renal
Description: (§2) Cells and cell culture. A498, 786-0, Achn and Caki-2 cells were obtained from ATCC (Manassas. Va.). Cells were cultured with medium supplemented with 10% FBS at 37° C. with 5% CO2 as previously described. Swords et al., Blood 2010; 115:3796.800. Human normal renal proximal tubule epithelial cells (RPTEC) were purchased from Clonetics (Walkersville, Md.) and cultured in REGM media (REGM BulletKit, Clonetics). Cell lines were authenticated by the source banks using DNA profiling techniques and were used for this study in accordance with AACR guidelines.
as §1

CFPAC-1 = experiment: 72 h MTT assay, CFPAC-1; format: cell-based; settings: Homo sapiens, CFPAC-1, Pancreas
Description: as §1

A549 = experiment: 72 h MTT assay, A549; format: cell-based; settings: Homo sapiens, A549, Lung
Description: as §1

RL = experiment: 72 h MTT assay, RL; format: cell-based; settings: Homo sapiens, NHL
Description: as §1

COLO-205 = experiment: 72 h MTT assay, COLO-205; format: cell-based; settings: Homo sapiens, COLO-205, Colon
Description: as §1

MCF-7 = experiment: 72 h MTT assay, MCF-7; format: cell-based; settings: Homo sapiens, MCF7, MCF-7, Breast
Description: as §1

UACC-62 = experiment: 72 h MTT assay, UACC-62; format: cell-based; settings: Homo sapiens, UACC-62, Melanoma
Description: as §1

[1] = Carew et al., J Biol Chem 2011; cited from earlier work
786-O and A498 cells = experiment: Acridine orange staining of acidic lysosomes; format: cell-based, human; settings: 24 h
Description: Acridine orange staining. Acidic lysosomes were visualized by acridine orange staining as previously described. Carew et al., J Biol Chem 2011; 286:6602-13. After treatment with ROC-325 for 24 h, cells were stained with 1 μM acridine orange for 15 minutes at 37° C. Cells were washed with PBS and images were captured using an Olympus fluorescent microscope. Acidic lysosomes appear as orange fluorescent cytoplasmic vesicles. Quantification of 5 random fields of acridine orange intensity and image acquisition were performed using Image-Pro Plus software Version 6.2.1.

LC3B, p62, cathepsin D = experiment: Immunoblotting of autophagy markers and autophagic flux with bafilomycin A1; format: cell-based, human
Description: Immunoblotting. Renal cancer cells were incubated with ROC-325 for 24 h. Cells were harvested and were then lysed as previously described. Nawrocki S T, Carew J S, Maclean K H, Courage J F, Huang P, Houghton J A, Cleveland J L, Giles F J, McConkey D J. Myc regulates aggresome formation, the induction of Noxa, and apoptosis in response to the combination of bortezomib and SAHA. Blood 2008; 112:2917-26. Approximately 50 μg of total cellular protein from each sample were subjected to SDS-PAGE, proteins were transferred to nitrocellulose membranes, and the membranes were blocked with 5% nonfat milk in a Tris-buffered saline solution containing 0.1% Tween-20 for 1 h. The blots were then probed overnight at 4° C. with primary antibodies, washed, and probed with species-specific secondary antibodies coupled to horseradish peroxidase. Immunoreactive material was detected by enhanced chemiluminescence (West Pico, Pierce, Inc., […]. Ill.).

RCC cells [2] = experiment: Transmission electron microscopy; format: cell-based, human; settings: 5 μM, 24 h
Description: Transmission electron microscopy. Transmission electron microscopy of cells was performed as previously described. Carew et al., J Cell Mol Med 2010 Oct.; 14(10):2448-59. RCC cells were treated with ROC-325 for 24 h and harvested for imaging. Briefly, sections were cut in an LKB Ultracut microtome (Leica. Deerfield, Ill.), stained with uranyl acetate and lead citrate, and examined in a JEM 1230 transmission electron microscope (JEOL, USA, Inc., Peabody, Mass.). Images were captured using the AMT Imaging System (Advanced Microscopy Techniques Corp, Danvers. Mass.).

786-0 RCC xenografts = experiment: In vivo evaluation in 786-O RCC xenografts; set-up: species or system nude mice
Description: In vivo evaluation of ROC-325 and HCQ. 786-O renal cancer cells (5×106) were suspended in a mixture of HBSS and Matrigel and subcutaneously implanted into female nude mice (BALB/c background). Tumor-bearing animals from each cell line xenograft were randomized into treatment groups. Mice were treated with vehicle (water), ROC-325 (25, 40, and 50 mg/kg PO), or HCQ (60 mg/kg IP) QD×5 for 6 weeks. Mice were monitored daily and tumor volumes were measured twice weekly. At study completion, tumors from representative animals were excised from each group, […], and paraffin-embedded for immunohistochemical analysis.
Immunohistochemistry. Paraffin-embedded tumor sections were deparaffinized in xylene, exposed to a graded series of alcohol, and rehydrated in PBS (pH 7.5). Heat-induced epitope retrieval on paraffin-embedded sections and probing with specific antibodies was conducted as previously described. Nawrocki et al., Clin Cancer Res 2013; 19:3577-90. Positive reactions were visualized using 3,3′-diaminobenzidine (Dako, Glostrup, Denmark). Images were captured using an Olympus fluorescent microscope (Center Valley. Pa.) with a DP71 camera and a 20× objective. Image-Pro Plus software Version 6.2.1 (MediaCybernetics, Bethesda, Md.) was used for image acquisition. ImageJ software was used for quantification of LC3B and p62 levels by densitometric analysis of five random fields containing viable tumor cells. Quantification of cleaved caspase-3 was conducted by counting the number of positive cells in five random fields as previously described. Carew et al., Cancer Res 2008; 68:4783-90.

A498 and 786-O cells = experiment: Giemsa staining, vacuolization; format: cell-based, human; settings: 5 μM, 24 h
Description: Giemsa staining. Cells were plated in chamber slides as previously described and treated with ROC-325 for 24 h. Carew et al., J Biol Chem 2011; 286:6602-13. Following drug treatment, cells were washed with PBS and fixed in methanol for 5 minutes. Cells were then incubated for 1 h in Giemsa stain diluted 1:20 with deionized water. Cells were rinsed with water and imaged using an Olympus fluorescent microscope. Image-Pro Plus software Version 6.2.1 was used for image acquisition.

LC3B = LC3B immunocytochemistry; format: cell-based, human; settings: 5 μM, 24 hours, A498 and 786-0
Description: Immunocytochemistry. Cells were plated on chamber slides and allowed to attach overnight. Cells were then treated for 24 h with ROC-325. Following drug treatment, cells were fixed with 4% paraformaldehyde, permeabilized using 0.2% triton-X-100, and incubated overnight with anti-LC3B antibody. Alexa Fluor 594 conjugated fluorescent secondary antibody was used to visualize protein localization. Dapi was utilized to stain the nucleus. Images were captured using an Olympus fluorescent microscope (Center Valley, Pa.) with a DP71 camera and a 60× objective. Image-Pro Plus software Version 6.2.1 (MediaCybernetics, Bethesda, Md.) was used for image acquisition.

[3] = tested on: 12 different human cancer cell lines; experiment: Direct comparison of in vitro anticancer effects in 12 cancer cell lines (MTT); format: cell-based; settings: all 12 models tested, 72 h MTT
Description: as §1

RCC cells [4] = experiment: Apoptosis: active caspase-3 flow cytometry and PI-FACS DNA fragmentation; format: cell-based, human; settings: 48 hours
Description: as §1

[5] = tested on: normal renal proximal tubule endothelial cells (RPTEC); experiment: MTT cell viability in normal renal cells; format: cell-based, human; settings: 72 hours
Description: as §2, §1

[6] = tested on: RCC cell lines (786-0, A498, Achn, and Caki-2); experiment: MTT cell viability in RCC cell lines; format: cell-based, human; settings: 72 hours
Description: as §2, §1

cathepsin D (CTSD) = experiment: Cathepsin D expression, microarray and qRT-PCR; format: cell-based, human; settings: A498 and 786-0, 5 μM, 24 hours; confirmed by qRT-PCR
Description: Expression microarrays. RCC cells were treated with […] for 24 h. Total RNAs were isolated using the RNeasy Plus Mini Kit (Qiagen, Germantown, Md.) and treated with TURBO DNA-Free™ Kit (Applied Biosystems, Foster City, Calif.), 300 ng of total RNA per sample was amplified and hybridized to GeneChip® Human Gene 1.0 ST arrays (Affymetrix, Inc., Santa Clara, Calif.) according to the manufacturer's instructions. Affymetrix CEL files were imported into Partek® Genomics Suite™ 6.4 (Partek Inc., St. Louis. Mo.) using the default Partek normalization parameters and the robust multi-array average (RMA) analysis adjusted for probe sequence and GC content (GC-RMA). Data normalization was performed across all arrays using quantile normalization.
Quantitative real time polymerase chain reaction, cDNA from ROC-325 treated cells were used for relative quantification by RT-PCR analyses. First-strand cDNA synthesis was performed from 1 μg RNA in a 20 μl reaction mixture using the high-capacity eDNA Reverse Transcription Kit (Applied Biosystems, Foster City, Calif.). Cathepsin D (CTSD) and GAPDH transcripts were amplified using commercially available TaqMan® Gene expression assays (Applied Biosystems, Foster City, Calif.). Relative gene expression was calculated with the 2-Ct method using GAPDH as a housekeeping gene. Pfaffl M W., Nucleic Acids Res 2001; 29:e45.

Row | SMILES | IC50 (PC-3) [µM] | IC50 (IGROV-1) [µM] | IC50 (DLD-1) [µM] | IC50 (NCI-H69) [µM] | IC50 (MiaPaCa-2) [µM] | IC50 (A498) [µM] | IC50 (CFPAC-1) [µM] | IC50 (A549) [µM] | IC50 (RL) [µM] | IC50 (COLO-205) [µM] | IC50 (MCF-7) [µM] | IC50 (UACC-62) [µM] | further results
1 | CCN(CCO)CCCC(C)Nc1ccnc2cc(Cl)ccc12 (stereo not drawn) [HCQ, hydroxychloroquine, reference compound] | 58 | > 75 | > 75 | 54 | > 75 | 52 | > 75 | > 75 | 35 | 51 | > 75 | > 75 | –
2 | CCN(CC)CCNc1ccc(C)c2sc3ccccc3c(=O)c12 [LUC, lucanthone] | – | – | – | – | – | – | – | – | – | – | – | – | anticancer activity compared to CQ [1]: approximately 10 ×
3 | Cc1ccc(NCCN(C)CCNc2ccnc3cc(Cl)ccc23)c2c(=O)c3ccccc3sc12 [ROC-325] | 11 | 11 | 7.4 | 5 | 5.8 | 4.9 | 4.6 | 11 | 8.4 | 5.4 | 8.2 | 6 | acridine orange fluorescence (lysosomal membrane permeability) (786-O and A498 cells): significant loss of acridine orange fluorescence; autophagic flux (LC3B, p62, cathepsin D; 786-0, alone and combined with bafilomycin A1): effectively inhibited autophagic flux; LC3B expression (immunoblotting) (LC3B, p62, cathepsin D; A498 and 786-0, 24 h): dose-dependent increase; levels of p62 and cathepsin D (immunoblotting) (LC3B, p62, cathepsin D; A498 and 786-0, 24 h): corresponding increase; autophagosomes (RCC cells [2]): promoted the accumulation of autophagosomes; tolerability (786-0 RCC xenografts; 25, 40, or 50 mg/kg PO, nude mice): well tolerated; disease progression (tumor volume) (786-0 RCC xenografts; 25, 40, or 50 mg/kg QD PO, 786-0 xenografts in nude mice): significant, dose-dependent inhibition of disease progression; LC3B in tumors (immunohistochemistry) (786-0 RCC xenografts; 786-0 xenograft specimens): significant, dose-dependent increases; apoptosis in tumors (cleaved caspase-3 immunohistochemistry) (786-0 RCC xenografts; 786-0 xenograft specimens): increased apoptosis; p62 in tumors (immunohistochemistry) (786-0 RCC xenografts; 786-0 xenograft specimens): significant, dose-dependent increases; mean body weight (786-0 RCC xenografts; highest dose, end of study (Day 46)): very modest, non-significant reduction; oral bioavailability (786-0 RCC xenografts; mice, PO): orally bioavailable; cytosolic vacuolization (A498 and 786-O cells): induced cytosolic vacuolization; LC3B distribution and levels (LC3B): formation of LC3B punctae and a robust increase in LC3B levels; lower IC50s than HCQ [3]: approximately 10 fold; percentages of cells with active caspase-3 expression (RCC cells [4]): dose-dependent increases; percentages of cells with fragmented DNA (RCC cells [4]; PI-FACS): dose-dependent increases; cell viability of normal renal cells [5]: marginal reduction in cell viability; more effective at diminishing RCC cell viability than HCQ [6]: approximately 10 fold; CTSD levels (cathepsin D (CTSD)): highly significant increase
